Values joined by “and” are separate entries in the source; they are usually repeats but may differ in a detail not shown here. Identical values can stand only once. Like-named read-outs stand apart in the source and are kept apart here.
Key:
[1] = molecular target: C. elegans complex II (succinate dehydrogenase) (Caenorhabditis elegans, UniProt O62215+P41956+Q09545); experiment: In vitro complex II activity assay, C. elegans mitochondria; assay type: biochemical; conditions: for % Activity Complex II: 100 µM compound, relative to solvent control, mean (SEM); for Percent in vitro activity, Complex II (single replicate Rep1-Rep4) / Percent in vitro activity, Complex II (Mean): 100 μM of NPD compound, C. elegans mitochondria; for Percent in vitro activity, Complex II (single replicate Rep1-Rep4): individual biological replicates; for Percent in vitro activity, Complex II (Mean): mean of four biological replicates
Method: (§1) Mitochondria were isolated from the following free-living nematode strains: C. elegans—N2, CB3474, ECA882, ECA917, ECA1075, ECA1080; C. briggsae—AF16; P. pacificus—PS312; and P. hermaphrodita—B178. With the exception of the P. hermaphrodita strain B178, adult worms of each strain were grown in bulk through liquid culture to obtain mitochondria in sufficient quantities. Due to poor growth in liquid media, mixed stage populations of P. hermaphrodita were washed off and collected from NGM plates seeded with OP50. The isolation of mitochondria from all free-living nematode strains followed the protocol previously outlined in Burns et al.[24]. In brief, a 1 L saturated culture of E. coli HB101 was concentrated 20-fold in 50 mL complete S-medium. ~500,000 L1 worms synchronized from an embryo preparation performed the day prior were added to the S-media/HB101 suspension and grown to adulthood over the course of 3.5 days at 20 °C with shaking at 165 rpm. Following growth, worms were collected in 10 ×15 mL conical tubes and washed 7 times in M9 buffer. Worm suspensions were then combined into a single 15 mL conical tube and diluted to a final volume of 15 mL with M9 buffer. 1 mL aliquots of worm suspension were then distributed to 15 × 1.5 mL screw-cap microcentrifuge tubes and were pelleted at 500 g for 1 min. Excess M9 was aspirated without disturbing the worm pellet. 600 μL ice-cold isolate buffer A (250 mM sucrose, 10 mM Tris (pH 7.5), 1 mM EDTA, 1 mM PMSF (freshly prepared)) and 300 μL cold glass beads were then added to each tube. Tubes were incubated on ice for 10 min, and the worms were then lysed by bead beating (6 x 30 s, with 1 min cooling intervals). Tubes containing worm lysate were centrifuged at 1,000 g for 10 min at 4 °C and the supernatant was transferred to 15 new microcentrifuge tubes on ice. The tubes were centrifuged a second time at 1,000 g for 10 min at 4 °C and the supernatant was once again transferred to 15 new microcentrifuge tubes on ice. These tubes were then centrifuged at 16,000 g for 10 min at 4 °C. The resulting mitochondrial pellet was washed twice by re-suspension in 300 μL of ice-cold isolate buffer B (250 mM sucrose, 10 mM Tris (pH 7.5), 1 mM EDTA). Following the final wash, isolation buffer was aspirated from each tube and the pellets were flash-frozen in ethanol/dry ice and stored at −80 °C until needed.
(§2) The enzymatic activities of individual ETC complexes (I-IV) were assessed spectrophotometrically in isolated mitochondria using a Varioskan LUX Multimode plate reader (ThermoFisher Scientific). Mitochondrial pellets previously isolated were thawed on ice and resuspended in ice-cold isolation buffer (250 mM sucrose, 10 mM Tris (pH 7.5), 1 mM EDTA). The BCA assay (Walker, 1994) was used to quantify the protein concentration of mitochondria suspensions; solutions were diluted to a concentration of 0.2 mg/mL for use in all assays. For the complex I assay, mitochondria pellets were freeze-thawed on ice three times to increase enzyme accessibility. […] 20 μL mitochondria suspension was then added/mixed with a pipette to initiate the reaction. Immediately following the addition of mitochondria, absorbance was measured (complex I and II: 600 nm; complex III and IV: 550 nm) in 30 s intervals over 15 min. Enzymatic activity was determined in each reaction by plotting absorbance versus time and calculating the slope of the curve during the initial linear phase of the reaction. […] Percent activity of each complex was calculated by dividing the enzyme-specific activity of each well by the enzyme-specific activity of the corresponding solvent controls.
Complex II (succinate dehydrogenase) activity was assessed using the DCIP-coupled method previously described in Burns et al.[24].
For preliminary screens of hit compounds, compounds were screened at 100 μM; data are the average of at least three biological replicates. The complex I and II activity assays were used for additional dose-response experiments.

[2] = tested on: C. elegans complex III (decylubiquinol-cytochrome C reductase); experiment: In vitro complex III activity assay, C. elegans mitochondria; assay type: biochemical, Caenorhabditis elegans; conditions: for % Activity Complex III: 100 µM compound, relative to solvent control, mean (SEM); for Percent in vitro activity, Complex III (single replicate Rep1-Rep4) / Percent in vitro activity, Complex III (Mean): 100 μM of NPD compound, C. elegans mitochondria; for Percent in vitro activity, Complex III (single replicate Rep1-Rep4): individual biological replicates; for Percent in vitro activity, Complex III (Mean): mean of four biological replicates
Method: as §1, §2
Antimycin A-sensitive complex III (decylubiquinol-cytochrome C […]) activity was determined by measuring the reduction of cytochrome C (CytC) as optimized in Luo et al.[59]. Decylubiquinol for complex III assays was prepared fresh as described in Janssen and Boyle, 2019[60].

HEK293 cells = conditions: for CC50: read-out: HEK293 Cell Viability Assay LC50, 2 days exposure
C. elegans = C. elegans chemical screens of RIKEN NPD libraries at 50 μM (hit identification in KCN survival and development/viability assays); assay type: cell-based, Caenorhabditis elegans; conditions: screened at 50 μM in triplicate; hit = modified z-score < −3; KCN = KCN survival assay, Dev. & Viability = development/viability assay
[3] = molecular target: C. elegans (N2) complex I (NADH:ubiquinone oxidoreductase) (Caenorhabditis elegans, UniProt P24887+Q93873+Q94360); experiment: biochemical; assay type: biochemical; conditions: for % Activity Complex I: 100 µM compound, relative to solvent control, mean (SEM); for Percent in vitro activity, Complex I (single replicate Rep1-Rep4) / Percent in vitro activity, Complex I (Mean): 100 μM of NPD compound, C. elegans mitochondria; for Percent in vitro activity, Complex I (single replicate Rep1-Rep4): individual biological replicates; for Percent in vitro activity, Complex I (Mean): mean of four biological replicates
Summary of the method: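 Complex I rate: initial linear slope of A600 over 15 min, expressed as percent of solvent control. Triple freeze-thawed mitochondria (0.2 mg/mL) in KPi pH 7.5, BSA 3 mg/mL, NADH 80 μM, decylubiquinone 60 μM, DCIP 160 μM, antimycin A, KCN.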

[4] = tested on: C. elegans complex IV (cytochrome C oxidase); experiment: In vitro complex IV activity assay, C. elegans mitochondria; assay type: biochemical, Caenorhabditis elegans; conditions: for % Activity Complex IV: 100 µM compound, relative to solvent control, mean (SEM); for Percent in vitro activity, Complex IV (single replicate Rep1-Rep4) / Percent in vitro activity, Complex IV (Mean): 100 μM of NPD compound, C. elegans mitochondria; for Percent in vitro activity, Complex IV (single replicate Rep1-Rep4): individual biological replicates; for Percent in vitro activity, Complex IV (Mean): mean of four biological replicates
Method: as §1, §2
Complex IV (cytochrome C oxidase) activity was determined by following the oxidation of CytC in the protocol outlined by Janssen and Boyle, 2019[60]. Reduced CytC was prepared fresh by adding 1 μL increments of 1 M dithiothreitol to a 1 mM solution of CytC and vortexing. A colour change from brown to orange/pink signals when CytC has been reduced.

L1 wild-type C. elegans = conditions: for LC50: caenorhabditis elegans
[5] = dose 0.8 µM, individual replicate (Rep)
[6] = dose 3.1 µM, individual replicate (Rep)
[7] = dose 6.3 µM, individual replicate (Rep)
[8] = dose 12.5 µM, individual replicate (Rep)
[9] = dose 25 µM, individual replicate (Rep)
[10] = dose 50 µM, individual replicate (Rep)

Chain of C. elegans (N2) complex I (NADH:ubiquinone oxidoreductase) (Q94360 17-199): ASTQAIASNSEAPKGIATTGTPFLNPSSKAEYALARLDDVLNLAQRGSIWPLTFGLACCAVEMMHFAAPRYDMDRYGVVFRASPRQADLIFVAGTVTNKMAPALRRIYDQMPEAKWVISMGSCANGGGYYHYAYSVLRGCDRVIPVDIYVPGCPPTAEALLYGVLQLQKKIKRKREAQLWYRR
Chain of C. elegans (N2) complex I (NADH:ubiquinone oxidoreductase) (P24887 whole entry): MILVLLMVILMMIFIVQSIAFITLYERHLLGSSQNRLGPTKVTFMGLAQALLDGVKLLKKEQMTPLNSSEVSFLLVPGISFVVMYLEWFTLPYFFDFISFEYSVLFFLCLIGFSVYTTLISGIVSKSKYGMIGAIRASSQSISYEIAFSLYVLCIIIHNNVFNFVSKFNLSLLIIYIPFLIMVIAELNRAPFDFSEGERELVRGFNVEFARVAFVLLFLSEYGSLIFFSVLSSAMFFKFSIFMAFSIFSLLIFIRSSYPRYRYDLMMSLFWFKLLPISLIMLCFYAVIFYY
Chain of C. elegans (N2) complex I (NADH:ubiquinone oxidoreductase) (Q93873 31-482): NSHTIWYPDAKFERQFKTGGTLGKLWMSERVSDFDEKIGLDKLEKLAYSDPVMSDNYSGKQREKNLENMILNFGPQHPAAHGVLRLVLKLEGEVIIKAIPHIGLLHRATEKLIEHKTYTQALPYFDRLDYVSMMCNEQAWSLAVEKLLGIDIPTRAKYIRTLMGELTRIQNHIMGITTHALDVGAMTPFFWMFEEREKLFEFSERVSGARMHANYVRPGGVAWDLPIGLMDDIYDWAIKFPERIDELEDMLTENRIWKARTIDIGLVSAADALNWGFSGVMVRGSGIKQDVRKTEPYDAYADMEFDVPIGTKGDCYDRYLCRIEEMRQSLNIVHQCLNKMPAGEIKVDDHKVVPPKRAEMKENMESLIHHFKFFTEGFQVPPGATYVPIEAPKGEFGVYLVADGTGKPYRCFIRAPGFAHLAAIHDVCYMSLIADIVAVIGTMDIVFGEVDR
Chain of C. elegans complex II (succinate dehydrogenase) (P41956 30-182): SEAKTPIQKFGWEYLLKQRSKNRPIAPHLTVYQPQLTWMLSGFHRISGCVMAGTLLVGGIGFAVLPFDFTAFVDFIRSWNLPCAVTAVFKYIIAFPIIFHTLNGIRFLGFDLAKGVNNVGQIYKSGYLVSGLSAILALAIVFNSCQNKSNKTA
Chain of C. elegans complex II (succinate dehydrogenase) (Q09545 22-298): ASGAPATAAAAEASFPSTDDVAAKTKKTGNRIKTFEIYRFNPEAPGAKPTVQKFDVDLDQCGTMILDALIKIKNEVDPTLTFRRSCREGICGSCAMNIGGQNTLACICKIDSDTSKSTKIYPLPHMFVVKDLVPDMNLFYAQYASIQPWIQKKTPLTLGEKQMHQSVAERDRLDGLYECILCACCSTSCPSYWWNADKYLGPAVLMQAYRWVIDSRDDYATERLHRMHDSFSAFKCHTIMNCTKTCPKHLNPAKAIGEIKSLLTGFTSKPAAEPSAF
Chain of C. elegans complex II (succinate dehydrogenase) (Q09508 32-646, further chain): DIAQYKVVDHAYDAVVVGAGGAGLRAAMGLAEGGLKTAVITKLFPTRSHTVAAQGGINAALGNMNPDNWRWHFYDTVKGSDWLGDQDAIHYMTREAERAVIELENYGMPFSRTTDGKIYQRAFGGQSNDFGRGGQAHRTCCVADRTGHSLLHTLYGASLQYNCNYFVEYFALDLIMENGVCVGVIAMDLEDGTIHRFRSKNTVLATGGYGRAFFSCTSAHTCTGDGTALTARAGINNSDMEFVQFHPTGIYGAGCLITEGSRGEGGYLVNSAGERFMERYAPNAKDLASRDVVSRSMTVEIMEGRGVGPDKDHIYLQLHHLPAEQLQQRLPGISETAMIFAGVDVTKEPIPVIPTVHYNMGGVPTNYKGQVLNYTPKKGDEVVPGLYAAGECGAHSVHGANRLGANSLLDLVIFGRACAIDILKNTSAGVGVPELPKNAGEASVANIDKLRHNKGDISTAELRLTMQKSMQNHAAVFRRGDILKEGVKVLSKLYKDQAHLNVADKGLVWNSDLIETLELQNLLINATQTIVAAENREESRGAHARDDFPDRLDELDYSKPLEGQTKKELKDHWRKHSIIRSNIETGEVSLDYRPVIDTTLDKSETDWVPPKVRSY
Chain of C. elegans complex II (succinate dehydrogenase) (O62215 31-145): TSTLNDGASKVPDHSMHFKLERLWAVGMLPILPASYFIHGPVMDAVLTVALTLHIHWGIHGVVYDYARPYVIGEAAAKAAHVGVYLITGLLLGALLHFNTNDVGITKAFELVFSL

| SMILES | % Activity Complex II [1] | Percent in vitro activity, Complex II (single replicate Rep1-Rep4) [1] | Percent in vitro activity, Complex II (Mean) [1] | % Activity Complex III [2] | Percent in vitro activity, Complex III (single replicate Rep1-Rep4) [2] | Percent in vitro activity, Complex III (Mean) [2] | CC50 (HEK293 cells) | Hit Type (C. elegans) | % Activity Complex I [3] | Percent in vitro activity, Complex I (single replicate Rep1-Rep4) [3] | Percent in vitro activity, Complex I (Mean) [3] | % Activity Complex IV [4] | Percent in vitro activity, Complex IV (single replicate Rep1-Rep4) [4] | Percent in vitro activity, Complex IV (Mean) [4] | LC50 (L1 wild-type C. elegans) | C. elegans L1 relative motility, 3-hour post 200 µM KCN dilution (L1 wild-type C. elegans) | further results |
| --- | --- | --- | --- | --- | --- | --- | --- | --- | --- | --- | --- | --- | --- | --- | --- | --- | --- |
| Cc1cc(O)c(C(=O)/C=C/c2ccccc2)c(=O)o1 [NPD8366] | 86.41 (3.37) % | 86.839% and 91.030% and 67.920% and 99.847% | 86.409% | 76.74 (1.10) % | 80.994% and 79.847% and 74.350% and 71.759% | 76.737% | 19.7 µM | KCN | 102.66 (1.57) % | 109.574% and 101.002% and 105.233% and 94.820% | 102.657% | 97.72 (2.77) % | 88.563% and 105.997% and 87.809% and 108.514% | 97.721% | 11.6 µM | – | – |
| COc1ccc(-c2cc(=Nc3ccccc3N)c3ccccc3o2)cc1 [NPD6380] | 102.27 (2.46) % | 113.834% and 92.410% and 96.068% and 106.772% | 102.271% | 107.06 (1.36) % | 109.305% and 109.700% and 110.292% and 98.948% | 107.062% | 29.2 µM | KCN | 86.43 (2.27) % | 77.779% and 82.402% and 98.876% and 86.642% | 86.425% | 115.38 (4.42) % | 108.559% and 111.425% and 100.551% and 140.996% | 115.383% | 14.3 µM | – | HEK293 viability (HEK293 cells; [5]): 0.998; HEK293 viability (HEK293 cells; [6]): 0.945 and 0.951; HEK293 viability (HEK293 cells; [7]): 0.687 and 0.797; HEK293 viability (HEK293 cells; [8]): 0.542 and 0.584; HEK293 viability (HEK293 cells; [9]): 0.441 and 0.466; HEK293 viability (HEK293 cells; [10]): 0.431 and 0.445; C. elegans L1 relative motility, 3-hour post 200 µM KCN dilution (L1 wild-type C. elegans; dose 0.4 µM, individual replicate (Rep)): 1.243 and 1.189; C. elegans L1 relative motility, 3-hour post 200 µM KCN dilution (L1 wild-type C. elegans; [5]): 1.074 and 1.086; C. elegans L1 relative motility, 3-hour post 200 µM KCN dilution (L1 wild-type C. elegans; [6]): 1.020 and 1.053; C. elegans L1 relative motility, 3-hour post 200 µM KCN dilution (L1 wild-type C. elegans; [7]): 1.040 and 1.101; C. elegans L1 relative motility, 3-hour post 200 µM KCN dilution (L1 wild-type C. elegans; [8]): 0.696 and 0.688; C. elegans L1 relative motility, 3-hour post 200 µM KCN dilution (L1 wild-type C. elegans; [9]): 0.136 and 0.141; C. elegans L1 relative motility, 3-hour post 200 µM KCN dilution (L1 wild-type C. elegans; [10]): 0.030 and 0.035 |
| O=C1OC(c2ccccc2)=NC1=CC=Cc1ccccc1 (mixture of isomers) [NPD8298] | 110.37 (5.08) % | 109.359% and 85.283% and 134.975% and 111.861% | 110.370% | 101.94 (2.48) % | 91.530% and 111.178% and 95.430% and 109.622% | 101.940% | > 50 µM | KCN | 79.90 (1.23) % | 86.721% and 79.429% and 78.427% and 75.015% | 79.898% | 108.05 (2.17) % | 99.305% and 106.055% and 106.771% and 120.048% | 108.045% | 2.57 µM | 0.014 | – |
| COc1ccc(-c2cc(=Nc3ccc(C)cc3)c3ccccc3o2)cc1OC [NPD1450] | 103.01 (4.34) % | 124.470% and 101.843% and 81.995% and 103.742% | 103.012% | 111.72 (0.94) % | 113.847% and 114.804% and 111.813% and 106.416% | 111.720% | > 50 µM | KCN | 84.47 (2.03) % | 79.543% and 95.426% and 77.236% and 85.664% | 84.467% | 117.12 (3.30) % | 109.749% and 111.295% and 110.581% and 136.859% | 117.121% | 35.3 µM | – | HEK293 viability (HEK293 cells): 0.921 |
| Cc1cc(O)c(C(=O)/C=C/c2ccc(C(C)C)cc2)c(=O)o1 [NPD6240] | 87.73 (3.81) % | 105.436% and 95.089% and 72.487% and 77.924% | 87.734% | 58.21 (2.30) % | 63.255% and 68.621% and 49.848% and 51.103% | 58.207% | 24.8 µM | KCN | 102.09 (1.80) % | 109.404% and 106.987% and 94.906% and 97.066% | 102.091% | 26.82 (0.75) % | 23.388% and 25.790% and 27.706% and 30.409% | 26.823% | 7.6 µM | 0.078 | – |
| O=C(/C=C/c1ccccc1)/C=C/c1ccccc1 [FSL0005] | 80.91 (2.02) % | 88.395% and 79.227% and 70.277% and 85.744% | 80.911% | 103.92 (1.25) % | 104.719% and 106.444% and 107.817% and 96.693% | 103.918% | 7.48 µM | KCN | 91.90 (0.78) % | 93.303% and 89.704% and 95.600% and 88.991% | 91.900% | 92.29 (3.01) % | 87.534% and 94.293% and 79.459% and 107.854% | 92.285% | 0.93 µM | 0.000 | – |
